In patent US20130012465A1 (Boehringer Ingelheim International GmbH, priority 2009, published 2013):
Like-named read-outs stand apart in the source and are kept apart here.

Tests used:
CAMA-1 = assay: triple negative breast cell panel, EC50 2D/3D; assay type: cell-based; conditions: Homo sapiens
[1] = tested on: HER2-negative, HR-positive mBC; assay: Phase II clinical study, Cohort B; assay type: in vivo, human
Protocol: (§1) A Phase II, open-label, multicenter trial was conducted in Belgium and Germany. Two Cohorts of patients were included: • Cohort A: Patients with triple negative mBC • Cohort B: Patients with HER2-negative, HR-positive mBC. • Primary endpoint for Cohort A and B initially was objective response as determined by response evaluation criteria in solid tumours (RECIST) criteria, as described by P. Therasse et al., J Natl Cancer Inst 2000, 92, 205-216. For Cohort A this was modified by amendment to clinical benefit (CB), i.e. complete response (CR), partial response (PR) and stable disease (SD) for at least 4 courses. • Secondary endpoints were time to progression, progression-free survival (PFS), overall survival (OS), time to objective response, duration of objective response, safety and pharmacokintics (PK). Clinical benefit (CR, PR, SD) was a secondary endpoint for Cohort B. • A total of 80 patients was planned to be enrolled into the trial: 80, i.e. 40 patients per cohort. […] Additional predose plasma samples were taken on Day 15 of Course 1, on Day 1 of Course 2 and on Day 1 of all subsequent courses (Course 3 onwards).
(§2) Dose reduction to 40 mg/day and 30 mg/day was an option for patients experiencing certain drug-related AEs.
• Confirmed diagnosis of Stage IV HER2-negative metastatic breast cancer (HER22+ and fluorescence in situ hybridization-negative or HER21+ or negative) • Progression following no more than two lines of chemotherapy including adjuvant, not including hormone treatments for Cohort B • Age ≧18 years • Life expectancy of at least 6 months • Written informed consent • Eastern Cooperative Oncology Group (ECOG) performance score 0-2 • Measurable disease according to RECIST criteria • Availability of tumour samples (fresh or paraffin material) for EGFR-testing. • No prior treatment with EGFR/HER1 or HER2 inhibiting agent • Adequate liver, kidney and bone marrow function • No concomitant treatment with other investigational drugs • No other anti-cancer-therapy within four weeks prior to the first treatment with the trial drug. • Concurrent treatment with biphosphonates is allowed.
• ER-positive and/or PgR-positive patients: ER-status and PgR-status must be assessed by IHC and Allred (Harvey J M et al., J Clin Oncol 1999, 17(5), 1474-1481).

[2] = tested on: HER2-negative metastatic breast cancer; assay: Phase II clinical study, all treated patients (safety, PK, exposure); assay type: in vivo, human
Protocol: as §1, with “Two Cohorts of patients were included: • Cohort A: Patients with triple negative mBC • Cohort B: Patients with HER2-negative, HR-positive mBC. • Primary endpoint for Cohort A and B initially was objective response as determined by response evaluation criteria in solid tumours (RECIST) criteria, as described by P. Therasse et al., J Natl Cancer Inst 2000, 92, 205-216.” left out
as §2

HCC 70 = assay: triple negative breast cell panel, EC50 2D/3D; assay type: cell-based; conditions: Homo sapiens, HCC70
SUM 149PT = assay: triple negative breast cell panel, EC50 2D/3D; assay type: cell-based; conditions: Homo sapiens, SUM149PT
BT 549 = assay: triple negative breast cell panel, EC50 2D/3D; assay type: cell-based; conditions: Homo sapiens
BT20 = assay: triple negative breast cell panel, EC50 2D/3D; assay type: cell-based; conditions: Homo sapiens, BT-20
HCC 1143 = assay: triple negative breast cell panel, EC50 2D/3D; assay type: cell-based; conditions: Homo sapiens, HCC1143
MDA-MB-231 = assay: triple negative breast cell panel, EC50 2D/3D; assay type: cell-based; conditions: Homo sapiens
HCC 1806 = assay: triple negative breast cell panel, EC50 2D/3D; assay type: cell-based; conditions: Homo sapiens, HCC1806
MDA-MB-468 = assay: triple negative breast cell panel, EC50 2D/3D; assay type: cell-based; conditions: Homo sapiens; MDA-MB-468, 3D
HCC 1937 = assay: triple negative breast cell panel, EC50 2D/3D; assay type: cell-based; conditions: Homo sapiens, HCC1937
triple negative mBC = conditions: Cohort A
Protocol: as §1, §2
• HR-negative patients: estrogen receptor (ER) status and progesterone receptor (PgR) status must be assessed by immunohistochemistry (IHC) and Allred (Harvey J M et al., J Clin Oncol 1999, 17(5), 1474-1481).

SUM149 Xenografts = assay: triple negative, EGFR positive SUM149 Xenografts in mice; assay type: in vivo
[3] = CAMA-1, 2D, read-out: EC50 [nM] 2D
[4] = CAMA-1, 3D, read-out: EC50 [nM] 3D
[5] = 50 treated patients, 50 mg/day oral
[6] = HCC 70, 2D, read-out: EC50 [nM] 2D
[7] = HCC 70, 3D, read-out: EC50 [nM] 3D
[8] = BT 549, 2D, read-out: EC50 [nM] 2D
[9] = BT20, 2D, read-out: EC50 [nM] 2D
[10] = BT20, 3D, read-out: EC50 [nM] 3D
[11] = HCC 1143, 2D, read-out: EC50 [nM] 2D
[12] = HCC 1143, 3D, read-out: EC50 [nM] 3D
[13] = MDA-MB-231, 2D, read-out: EC50 [nM] 2D
[14] = MDA-MB-231, 3D, read-out: EC50 [nM] 3D
[15] = HCC 1806, 2D, read-out: EC50 [nM] 2D
[16] = HCC 1806, 3D, read-out: EC50 [nM] 3D
[17] = HCC 1937, 2D, read-out: EC50 [nM] 2D
[18] = HCC 1937, 3D, read-out: EC50 [nM] 3D
[19] = three patients with clinical benefit for >4 months

| Structure (SMILES) | EC50 (CAMA-1; [3]) [nM] | EC50 (CAMA-1; [4]) [nM] | EC50 (HCC 70; [6]) [nM] | EC50 (HCC 70; [7]) [nM] | EC50 (SUM 149PT) [nM] | EC50 (BT 549; [8]) [nM] | EC50 (BT20; [9]) [nM] | EC50 (BT20; [10]) [nM] | EC50 (HCC 1143; [11]) [nM] | EC50 (HCC 1143; [12]) [nM] | EC50 (MDA-MB-231; [13]) [nM] | EC50 (MDA-MB-231; [14]) [nM] | EC50 (HCC 1806; [15]) [nM] | EC50 (HCC 1806; [16]) [nM] | EC50 (MDA-MB-468) [nM] | EC50 (HCC 1937; [17]) [nM] | EC50 (HCC 1937; [18]) [nM] | also measured |
| --- | --- | --- | --- | --- | --- | --- | --- | --- | --- | --- | --- | --- | --- | --- | --- | --- | --- | --- |
| CN(C)C/C=C/C(=O)Nc1cc2c(Nc3ccc(F)c(Cl)c3)ncnc2cc1O[C@H]1CCOC1 [BIBW 2992, 4-[(3-chloro-4-fluorophenyl)amino]-6-{[4-(N,N-dimethylamino)-1-oxo-2-buten-1-yl]amino}-7-((S)-tetrahydrofuran-3-yloxy)-quinazo line] | 234 | 277 | 571 | > 1000 | 17 | 2020 | > 4000 | 23 | > 4000 | > 1000 | > 10000 | 2150 | > 4000 | 47 | 1250 | > 4000 | > 4000 | patients discontinued due to disease progression [1]: 12 patients; objective response (OR), RECIST ([1]; 50 mg/day oral): No OR; patients with SD for ≧4 cycles ([1]; 50 mg/day oral): 1 patient; patients with a best response of SD ([1]; 21 patients included, 50 mg/day oral): 5 patients; patients discontinued due to dose-reducing toxicities ([2]; 50 treated patients): 15 patients; patients discontinued due to other AEs ([2]; 50 treated patients): four; patients discontinued treatment due to AEs [2, 5]: Nineteen; safety profile [2, 5]: safety profile similar to other EGFR TKIs; patients discontinued due to disease progression ([2]; all 50 treated patients): Thirty-one; EC50 (BT 549; BT 549, 3D, read-out: EC50 [nM] 3D): 956 nM; patients discontinued due to disease progression (triple negative mBC): 19 patients; objective response (OR), RECIST (triple negative mBC; 50 mg/day oral): No objective response; patients remaining on treatment with SD for >4 cycles (triple negative mBC; 50 mg/day oral): three; overall median PFS (triple negative mBC; 29 patients): 53 days; patients with a best response of SD (triple negative mBC; 29 patients included, 50 mg/day oral): Seven; mean PFS (triple negative mBC; [19]): 217 days; median PFS (triple negative mBC; [19]): 184 days |
| CCOc1cc2ncc(C#N)c(Nc3ccc(OCc4ccccn4)c(Cl)c3)c2cc1NC(=O)/C=C/CN(C)C [HKI-272] |  |  |  |  |  |  |  |  |  |  |  |  |  |  |  |  |  | T/C [%] Day 42 (SUM149 Xenografts; 50 mg/kg/d (MTD)): 36% |
| C#Cc1cccc(Nc2ncnc3cc(OCCOC)c(OCCOC)cc23)c1 [erlotinib] |  |  |  |  |  |  |  |  |  |  |  |  |  |  |  |  |  | T/C [%] Day 42 (SUM149 Xenografts; 75 mg/kg/d (MTD)): 6% |
| CS(=O)(=O)CCNCc1ccc(-c2ccc3ncnc(Nc4ccc(OCc5cccc(F)c5)c(Cl)c4)c3c2)o1 [lapatinib, reference compound] | > 1000 | 3010 | > 1000 | > 1000 | 1360 | > 1000 | > 4000 | 467 | > 4000 | > 4000 | > 10000 | > 4000 | > 4000 | > 4000 | > 1000 | > 4000 | > 4000 | T/C [%] Day 42 (SUM149 Xenografts; 2 × 100 mg/kg/d (MTD)): 25% |
